Measured values reported in patent US10716762B2, “Transmucosal administration system for a pharmaceutical drug” (LTS Lohmann Therapie-Systeme AG, priority 2012, dated 2020).

How the values were obtained:
[1] = Pharmacokinetics of idebenone after oromucosal (oral wafer) vs. oral (gavage) administration, three way cross-over study; assay type: in vivo, female Beagle dogs; conditions: oral administration by gavage vs. oral-mucosal application
Experimental: Plasma levels of idebenone were studied after the administration of two different thin film formulations (oral wafers) administered via the oromucosal route and compared to the profile obtained when idebenone is dosed by the oral route (gavage) in a micro-emulsion. The doses used in this study were 30 mg oromucosal (oral wafer A, suspension type), 15 mg oromucosal (oral wafer B, solid solution type) and 300 mg oral (TPGS/Miglyol microemulsion administered by oral gavage). The study was a three way cross-over study with one week wash-out between administrations. Formulations were administered to female Beagle dogs under fasted conditions. The pharmacokinetic exposure of free (unconjugated) idebenone and its total metabolites (total idebenone, total QS10, total QS6, and total QS4) was determined for each formulation.
Blood samples were collected at several time points over 6 hours after administration. Concentrations of idebenone in plasma were measured by HPLC-MS/MS and pharmacokinetic parameters were calculated.
For this, idebenone was separated and quantified by HPLC-MS/MS: For HPLC, a SYNERGI™ 4μ MAX-RP (50×2 mm) column (Phenomenex. Schlieren, Switzerland) was used. Column temperature: 50° C. […]
Once separated, idebenone was quantified by ESI-MS/MS (API 4000, Perkin-Elmer-Europe BV, Rotkreuz, Switzerland) in positive mode. […]

[2] = First-pass metabolism of idebenone through the liver after oral administration; assay type: in vivo; conditions: after absorption in the gut
Description: As a lipophilic compound idebenone is well absorbed in the gastrointestinal tract after conventional oral administration, which is the normal route for administering said compound. Dosage forms such as tablets or capsules have been used in clinical trials and as marketed product. In the course of our investigations on the pharmacological profile of idebenone, we discovered that the compound, after being absorbed in the gut, is metabolized very quickly during its first passage through the liver (“first-pass-effect”). […] Hepatic metabolism of idebenone results in side chain oxidation, reduction of the quinone ring, sulphate and glucuronide conjugation and subsequent renal excretion. The high liver metabolism greatly reduces the potentially high plasma levels of the pharmacologically active idebenone. Because of this strong first pass metabolism, oral administration of idebenone requires high doses of the compound to achieve pharmacologically efficacious plasma levels in the body. Said high doses can result in unwanted side effects such as diarrhea.

[3] = 536 patients, up to 360 mg t.i.d.; Thal et al., Neurology 61 (2003); cited from earlier work

metabolic spectrum of idebenone [1]: comparable
idebenone metabolized during its first passage through the liver [2]: more than 98%
Structure (SMILES): COC1=C(OC)C(=O)C(CCCCCCCCCCO)=C(C)C1=O [idebenone, 2,3-dimethoxy-5-methyl-6-(10-hydroxydecyl)-1,4-benzoquinone]
treatment emergent adverse events compared to placebo [3]: no treatment emergent adverse events except some gastrointestinal irritations as well as a slight increase in orthopedic events
